From ChEMBL document CHEMBL1201862, “PubChem BioAssay data set” (2004)
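Results reflect a 48-hour exposure of cells in 96-well plates to compound at five concentrations. The concentration for 50% growth inhibition is given as GI50.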 Active and inactive are the calls of the source. Rule as the data show it: active = GI50 up to about 1.1 µM and inactive = higher.

Tests used:
Assay in all cases: NCI tumour cell line growth inhibition, 48 h
NCI-H522 = tested on: NCI-H522
HCC 2998 = tested on: HCC 2998
DU-145 = tested on: DU-145
MDA-MB-435 = tested on: MDA-MB-435
K562 = tested on: K562
CAKI-1 = tested on: CAKI-1
NCI/ADR-RES = tested on: NCI/ADR-RES
HOP-62 = tested on: HOP-62
HCT-15 = tested on: HCT-15
SNB-19 = tested on: SNB-19
SW-620 = tested on: SW-620
NCI-H460 = tested on: NCI-H460
SK-MEL-28 = tested on: SK-MEL-28
BT-549 = tested on: BT-549
A549 = tested on: A549
SF-268 = tested on: SF-268
MDA-MB-231 = tested on: MDA-MB-231
SN12C = tested on: SN12C
SF-295 = tested on: SF-295
SR = tested on: SR

Row | SMILES | GI50 (NCI-H522) | GI50 (HCC 2998) | GI50 (DU-145) | GI50 (MDA-MB-435) | GI50 (K562) | GI50 (CAKI-1) | GI50 (NCI/ADR-RES) | GI50 (HOP-62) | GI50 (HCT-15) [µM] | GI50 (SNB-19) | GI50 (SW-620) | GI50 (NCI-H460) | GI50 (SK-MEL-28) | GI50 (BT-549) | GI50 (A549) | GI50 (SF-268) | GI50 (MDA-MB-231) | GI50 (SN12C) | GI50 (SF-295) | GI50 (SR)
1 | CN(C)CCOC(=O)c1ccc(N)cc1 | 20.4 µM (inactive) | 16 µM (inactive) | 71.6 µM (inactive) | 41.8 µM (inactive) | 30 µM (inactive) | 32.3 µM (inactive) | 51.2 µM (inactive) | > 100 µM (inactive) | > 100 | 56.5 µM (inactive) | 64.4 µM (inactive) | 31.8 µM (inactive) | 29.1 µM (inactive) | 51.1 µM (inactive) | 52.4 µM (inactive) | 41.6 µM (inactive) | 16.1 µM (inactive) | 48.2 µM (inactive) | 47.8 µM (inactive) | –
2 | CC1(C)Cc2ccccc2C(C)(Cl)C(=O)N1 (stereo not given) | – | > 10 µM (inactive) | > 10 µM (inactive) | > 10 µM (inactive) | > 10 µM (inactive) | > 10 µM (inactive) | > 10 µM (inactive) | > 10 µM (inactive) | > 10 | > 10 µM (inactive) | > 10 µM (inactive) | > 10 µM (inactive) | > 10 µM (inactive) | > 10 µM (inactive) | > 10 µM (inactive) | > 10 µM (inactive) | > 10 µM (inactive) | > 10 µM (inactive) | > 10 µM (inactive) | > 10 µM (inactive)
3 | Cc1ccc(O)c(Cc2nc3ccccc3nc2-c2cccc(Br)c2)c1 | 44.2 µM (inactive) | – | > 100 µM (inactive) | > 100 µM (inactive) | 34.4 µM (inactive) | 85.3 µM (inactive) | > 100 µM (inactive) | > 100 µM (inactive) | 22.3 | 19.9 µM (inactive) | 86.3 µM (inactive) | > 100 µM (inactive) | – | > 100 µM (inactive) | > 100 µM (inactive) | > 100 µM (inactive) | > 100 µM (inactive) | > 100 µM (inactive) | > 100 µM (inactive) | 33.2 µM (inactive)
4 | NC(c1ccccc1)(C(F)(F)F)P1(=O)OC(=O)c2ccccc2O1 (stereo not given) | – | > 100 µM (inactive) | > 100 µM (inactive) | > 100 µM (inactive) | > 100 µM (inactive) | > 100 µM (inactive) | > 100 µM (inactive) | > 100 µM (inactive) | > 100 | > 100 µM (inactive) | > 100 µM (inactive) | > 100 µM (inactive) | > 100 µM (inactive) | > 100 µM (inactive) | > 100 µM (inactive) | > 100 µM (inactive) | > 100 µM (inactive) | > 100 µM (inactive) | > 100 µM (inactive) | 71.8 µM (inactive)
5 | CC(C)CCCC(C)[C@H]1CC[C@H]2N/C(=N/Cc3ccccc3)CCC[C@]12C (stereo not given in full) | – | – | 2.52 µM (inactive) | 1.64 µM (inactive) | 1.26 µM (inactive) | 2.25 µM (inactive) | 1.65 µM (inactive) | 2.46 µM (inactive) | 1.67 | 2.94 µM (inactive) | 1.91 µM (inactive) | 1.66 µM (inactive) | 1.47 µM (inactive) | 2.72 µM (inactive) | 1.83 µM (inactive) | 2.2 µM (inactive) | 2.05 µM (inactive) | 1.84 µM (inactive) | 2.03 µM (inactive) | 2.72 µM (inactive)
6 | OC1CSc2nc3ccccc3n2C1 (stereo not given) | – | > 100 µM (inactive) | > 100 µM (inactive) | > 100 µM (inactive) | > 100 µM (inactive) | > 100 µM (inactive) | > 100 µM (inactive) | – | > 100 | > 100 µM (inactive) | > 100 µM (inactive) | > 100 µM (inactive) | – | > 100 µM (inactive) | > 100 µM (inactive) | > 100 µM (inactive) | > 100 µM (inactive) | > 100 µM (inactive) | > 100 µM (inactive) | > 100 µM (inactive)
